# Assay results from US9944645B2, “Imidazotriazines and imidazopyrimidines as kinase inhibitors” (Incyte Holdings Corporation, priority 2006, dated 2018).
# Target: c-Met kinase (h-Met; histidine-tagged c-Met catalytic domain fusion protein) (Homo sapiens (Human), UniProt P08581)
# Assay: In Vitro c-Met Kinase Enzyme Assays
# Type: biochemical
# Conditions: phosphorylation of poly Glu-Tyr, 5 μM ATP, 25 minutes at 30° C.
# Procedure: Compounds were screened in vitro for their ability to inhibit c-Met kinase activity. […] Briefly, histidine-tagged c-Met catalytic domain fusion protein (Invitrogen, #PV3143) was used for the assay. […] The reaction lasted for 25 minutes at 30° C. After the reaction was completed, the contents of the plates was discarded. Plates were then washed with TBS-T (250 μL/well, 5×) and then blocked with TBS-T containing 1% BSA for 2 hours. The contents of the plates was discarded, and 100 μL (per well) of peroxidase-labeled anti-phospho-tyrosine antibody (Sigma, #A5964) diluted (1:60,000) in 1% BSA containing TBS-T were then added and incubated for 1 hour. Plates were washed with TBS-T ([…], 5×) and followed by the color reaction using 100 μL (1:1 mixture) of H2O2 and tetramethylbenzidine (R&D Systems, #DY999). The reaction was stopped in minutes with 100 μL of 2 N H2SO4. The optical density was measured immediately using a microplate reader at 450 nm with wavelength correction at 540 nm. IC50 values were calculated with the GraphPad Prism software. The linear range (i.e., the time period over which the rate remained equivalent to the initial rate) was determined for the kinase and IC50 determinations were performed within this range.
# c-Met kinase (h-Met; histidine-tagged c-Met catalytic domain fusion protein), sequence (P08581 1078-1345): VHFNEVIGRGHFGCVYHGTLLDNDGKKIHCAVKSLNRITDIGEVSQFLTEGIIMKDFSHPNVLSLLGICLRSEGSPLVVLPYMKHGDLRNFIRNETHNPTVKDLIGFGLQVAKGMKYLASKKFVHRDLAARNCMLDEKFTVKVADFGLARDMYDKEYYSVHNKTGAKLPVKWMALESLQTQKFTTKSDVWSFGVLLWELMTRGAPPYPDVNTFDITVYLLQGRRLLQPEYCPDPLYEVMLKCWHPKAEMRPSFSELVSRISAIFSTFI
row,IC50 [µM],SMILES
1,< 0.5,"CNC(=O)[C@H](C)NC(=O)c1ccc(-c2cnc3ncc(C4(c5ccc6ncccc6c5)CC4)n3c2)cc1 [Example 50, N-[(1S)-1-Methyl-2-(methylamino)-2-oxoethyl]-4-[3-(1-quinolin-6-ylcyclopropyl)imidazo[1,2-a]pyrimidin-6-yl]benzamide]"
2,< 0.5,"CNC(=O)[C@@H](C)NC(=O)c1ccc(-c2cnc3ncc(C4(c5ccc6ncccc6c5)CC4)n3c2)cc1 [Example 51, N-[(1R)-1-Methyl-2-(methylamino)-2-oxoethyl]-4-[3-(1-quinolin-6-ylcyclopropyl)imidazo[1,2-a]pyrimidin-6-yl]benzamide]"
3,< 0.5,"COC(=O)N1CCN(c2ccc(-c3cnc4ncc(C5(c6ccc7ncccc7c6)CC5)n4c3)cn2)CC1 [Example 53, Methyl 4-{5-[3-(1-quinolin-6-ylcyclopropyl)imidazo[1,2-a]pyrimidin-6-yl]pyridin-2-yl}piperazine-1-carboxylate]"
4,< 0.5,"CS(=O)(=O)N1CCN(c2ccc(-c3cnc4ncc(C5(c6ccc7ncccc7c6)CC5)n4c3)cn2)CC1 [Example 54, 6-[1-(6-{6-[4-(Methylsulfonyl)piperazin-1-yl]pyridin-3-yl}imidazo[1,2-a]pyrimidin-3-yl)cyclopropyl]quinoline]"
5,< 0.5,"CN(C)C(=O)N1CCN(c2ccc(-c3cnc4ncc(C5(c6ccc7ncccc7c6)CC5)n4c3)cn2)CC1 [Example 55, N,N-Dimethyl-4-{5-[3-(1-quinolin-6-ylcyclopropyl)imidazo[1,2-a]pyrimidin-6-yl]pyridin-2-yl}piperazine-1-carboxamide]"
6,< 0.5,"CC(C)[C@H](NC(=O)c1ccc(-c2cnc3ncc(C4(c5ccc6ncccc6c5)CC4)n3c2)cc1)C(=O)N(C)C [Example 56, N-(1S)-1-[(Dimethylamino)carbonyl]-2-methylpropyl-4-[3-(1-quinolin-6-ylcyclopropyl)imidazo[1,2-a]pyrimidin-6-yl]benzamide]"
7,< 0.5,"CN(C)C(=O)C1(NC(=O)c2ccc(-c3cnc4ncc(C5(c6ccc7ncccc7c6)CC5)n4c3)cc2)CCC1 [Example 57, N-1-[(Dimethylamino)carbonyl]cyclobutyl-4-[3-(1-quinolin-6-ylcyclopropyl)imidazo[1,2-a]pyrimidin-6-yl]benzamide]"
8,< 0.5,"CC(C)(C)[C@H](NC(=O)c1ccc(-c2cnc3ncc(C4(c5ccc6ncccc6c5)CC4)n3c2)cn1)C(=O)N1CCC1 [Example 58, N-[(1S)-1-(Azetidin-1-ylcarbonyl)-2,2-dimethylpropyl]-5-[3-(1-quinolin-6-ylcyclopropyl)imidazo[1,2-a]pyrimidin-6-yl]pyridine-2-carboxamide]"
9,< 0.5,"CNC(=O)[C@@H](NC(=O)c1ccc(-c2cnc3ncc(C4(c5ccc6ncccc6c5)CC4)n3c2)cn1)C(C)(C)C [Example 59, N-(1S)-2,2-Dimethyl-1-[(methylamino)carbonyl]propyl-5-[3-(1-quinolin-6-ylcyclopropyl)imidazo[1,2-a]pyrimidin-6-yl]pyridine-2-carboxamide]"
10,< 0.5,"CC(C)(C)[C@H](NC(=O)c1ccc(-c2cnc3ncc(C4(c5ccc6ncccc6c5)CC4)n3c2)cn1)C(=O)NC1CC1 [Example 60, N-(1S)-1-[(Cyclopropylamino)carbonyl]-2,2-dimethylpropyl-5-[3-(1-quinolin-6-ylcyclopropyl)imidazo[1,2-a]pyrimidin-6-yl]pyridine-2-carboxamide]"
11,< 0.5,"C[C@H](NC(=O)c1ccc(-c2cnc3ncc(C4(c5ccc6ncccc6c5)CC4)n3c2)cn1)C(=O)N(C)C [Example 61, N-[(1S)-2-(Dimethylamino)-1-methyl-2-oxoethyl]-5-[3-(1-quinolin-6-ylcyclopropyl)imidazo[1,2-a]pyrimidin-6-yl]pyridine-2-carboxamide]"
12,< 0.5,"C[C@@H](NC(=O)c1ccc(-c2cnc3ncc(C4(c5ccc6ncccc6c5)CC4)n3c2)cn1)C(=O)N(C)C [Example 62, N-[(1R)-2-(Dimethylamino)-1-methyl-2-oxoethyl]-5-[3-(1-quinolin-6-ylcyclopropyl)imidazo[1,2-a]pyrimidin-6-yl]pyridine-2-carboxamide]"
13,< 0.5,"O=C(COc1ccc(-c2cnc3ncc(C4(c5ccc6ncccc6c5)CC4)n3c2)cc1)N1CCCC1 [Example 63, 6-(1-{6-[4-(2-Oxo-2-pyrrolidin-1-ylethoxy)phenyl]imidazo[1,2-a]pyrimidin-3-yl}cyclopropyl)quinoline]"
14,< 0.5,"N#CC1(c2ccc(-c3cnc4ncc(C5(c6ccc7ncccc7c6)CC5)n4c3)cc2)CC1 [Example 64, 1-{4-[3-(1-Quinolin-6-ylcyclopropyl)imidazo[1,2-a]pyrimidin-6-yl]phenyl}cyclopropanecarbonitrile]"
15,< 0.5,"CN(C)S(=O)(=O)c1ccc(-c2cnc3ncc(C4(c5ccc6ncccc6c5)CC4)n3c2)cc1 [Example 65, N,N-Dimethyl-4-[3-(1-quinolin-6-ylcyclopropyl)imidazo[1,2-a]pyrimidin-6-yl]benzenesulfonamide]"
16,< 0.5,"COC(=O)NCc1ccc(-c2cnc3ncc(C4(c5ccc6ncccc6c5)CC4)n3c2)cc1F [Example 66, Methyl 2-fluoro-4-[3-(1-quinolin-6-ylcyclopropyl)imidazo[1,2-a]pyrimidin-6-yl]benzylcarbamate]"

# Continued, molecule first:
row,SMILES,IC50 [µM]
1,"O=C(NC1CCN(c2ccccn2)C1)c1ccc(-c2cnc3ncc(C4(c5ccc6ncccc6c5)CC4)n3c2)cc1 (centres unmarked) [Example 37, N-(1-Pyridin-2-ylpyrrolidin-3-yl)-4-[3-(1-quinolin-6-ylcyclopropyl)imidazo[1,2-a]pyrimidin-6-yl]benzamide]",< 0.5
2,"O=C(c1ccc(-c2cnc3ncc(C4(c5ccc6ncccc6c5)CC4)n3c2)cc1)N1CCC(c2ccccn2)C1 (centres unmarked) [Example 38, 6-[1-(6-{4-[(3-Pyridin-2-ylpyrrolidin-1-yl)carbonyl]phenyl}imidazo[1,2-a]pyrimidin-3-yl)cyclopropyl]quinoline]",< 0.5
3,"O=C(c1ccc(-c2cnc3ncc(C4(c5ccc6ncccc6c5)CC4)n3c2)cc1)N1CC[C@H](Oc2ccccn2)C1 [Example 39, 6-{1-[6-(4-[(3S)-3-(Pyridin-2-yloxy)pyrrolidin-1-yl]carbonylphenyl)imidazo[1,2-a]pyrimidin-3-yl]cyclopropyl}quinoline]",< 0.5
4,"O=C(NCCOc1ccccn1)c1ccc(-c2cnc3ncc(C4(c5ccc6ncccc6c5)CC4)n3c2)cc1 [Example 40, N-[2-(Pyridin-2-yloxy)ethyl]-4-[3-(1-quinolin-6-ylcyclopropyl)imidazo[1,2-a]pyrimidin-6-yl]benzamide]",< 0.5
5,"CC(COc1ccccn1)NC(=O)c1ccc(-c2cnc3ncc(C4(c5ccc6ncccc6c5)CC4)n3c2)cc1 (centres unmarked) [Example 41, N-[1-Methyl-2-(pyridin-2-yloxy)ethyl]-4-[3-(1-quinolin-6-ylcyclopropyl)imidazo[1,2-a]pyrimidin-6-yl]benzamide]",< 0.5
6,"O=C(NCCOc1ccccc1)c1ccc(-c2cnc3ncc(C4(c5ccc6ncccc6c5)CC4)n3c2)cc1 [Example 42, N-(2-Phenoxyethyl)-4-[3-(1-quinolin-6-ylcyclopropyl)imidazo[1,2-a]pyrimidin-6-yl]benzamide]",< 0.5
7,"CNC(=O)[C@@H](NC(=O)c1ccc(-c2cnc3ncc(C4(c5ccc6ncccc6c5)CC4)n3c2)cc1)C(C)(C)C [Example 43, N-(1S)-2,2-Dimethyl-1-[(methylamino)carbonyl]propyl-4-[3-(1-quinolin-6-ylcyclopropyl)imidazo[1,2-a]pyrimidin-6-yl]benzamide]",< 0.5
8,"CN(C)C(=O)[C@@H](NC(=O)c1ccc(-c2cnc3ncc(C4(c5ccc6ncccc6c5)CC4)n3c2)cc1)C(C)(C)C [Example 44, N-(1S)-1-[(Dimethylamino)carbonyl]-2,2-dimethylpropyl-4-[3-(1-quinolin-6-ylcyclopropyl)imidazo[1,2-a]pyrimidin-6-yl]benzamide]",< 0.5
9,"CC(C)(C)[C@H](NC(=O)c1ccc(-c2cnc3ncc(C4(c5ccc6ncccc6c5)CC4)n3c2)cc1)C(=O)N1CCC1 [Example 45, N-[(1S)-1-(Azetidin-1-ylcarbonyl)-2,2-dimethylpropyl]-4-[3-(1-quinolin-6-ylcyclopropyl)imidazo[1,2-a]pyrimidin-6-yl]benzamide]",< 0.5
10,"O=C(NC1CC1)c1cccc(-c2cnc3ncc(C4(c5ccc6ncccc6c5)CC4)n3c2)c1 [Example 46, N-Cyclopropyl-3-[3-(1-quinolin-6-ylcyclopropyl)imidazo[1,2-a]pyrimidin-6-yl]benzamide]",< 0.5
11,"O=C(NCc1ccccn1)c1cccc(-c2cnc3ncc(C4(c5ccc6ncccc6c5)CC4)n3c2)c1 [Example 47, N-(Pyridin-2-ylmethyl)-3-[3-(1-quinolin-6-ylcyclopropyl)imidazo[1,2-a]pyrimidin-6-yl]benzamide]",< 0.5
12,"CN(C)C(=O)c1cccc(-c2cnc3ncc(C4(c5ccc6ncccc6c5)CC4)n3c2)c1 [Example 48, N,N-Dimethyl-3-[3-(1-quinolin-6-ylcyclopropyl)imidazo[1,2-a]pyrimidin-6-yl]benzamide]",< 0.5
13,"CNC(=O)c1cccc(-c2cnc3ncc(C4(c5ccc6ncccc6c5)CC4)n3c2)c1 [Example 49, N-Methyl-3-[3-(1-quinolin-6-ylcyclopropyl)imidazo[1,2-a]pyrimidin-6-yl]benzamide]",< 0.5
